{
  "source": "patent US5656591A",
  "about": "“Antimicrobial agents and method for treating products therewith” (Morinaga Milk Industry Co., Ltd., priority 1992, dated 1997)",
  "key": {"Escherichia coli 0-111": {"test_system": "Escherichia coli 0-111", "assay": "Test for antimicrobial activity (turbidity): growth inhibiting concentration of antibiotics", "type": "cell-based", "procedure": "(§1) Precultures of test microorganisms to be used in the tests described hereunder were prepared in such a manner that: from the frozen preservation of dispersions of test microorganisms, a loop of the respective strains of the microorganisms were taken out and spread onto TRI PETIT CASE SOYA AGAR MEDIA (by BBL Company), and incubated at 37° C. for 16 hours; the colonies grown on the culture media were scraped by a platinum loop and cultivated in 2.1% Mueller-Hington Broth (by Difco Company) respectively for several hours at 37° C. The resultant microbial cultures at logarithmic phase in 3×10^8 /ml of microbial concentration were used as the precultures.\n(§2) The test media to be used in the respective tests were prepared in such a manner that: aqueous solutions in a predetermined concentration of the lactoferrin hydrolysates or the lactoferrin-derived antimicrobial peptides of (1) and (2) in Preparation of Samples (supra), as well as the samples of antibiotics of (3) (supra) were respectively sterilized with filters (by Advantec Company); then a quantity of the resultant solutions of respective samples were selectively added to a quantity of basal medium (Mueller-Hington Broth) prepared in the eventual concentration of 2.1%, thereby combinations of the samples and their concentrations in the respective test media were adjusted as specified in the respective tests.\n(§3) Antimicrobial activity was examined as follows: A quantity of the respective precultures prepared in (1) immediately above was diluted with 2.1% Mueller-Hington Broth to result in 2×10^6 /ml of microbial concentration; 100 μl aliquots of the resultant liquid were added to 100 μl aliquots of one of the test media as specified in the respective test; the resultant media were incubated at 37° C. for 16 hours; then the turbidity of the resultant culture broths were measured thereby antimicrobial activity was examined.\n(§4) Components in the test and control media and eventual concentrations thereof were adjusted by properly combining 0 mg, 0.4 mg, 1.6 mg and 6.4 mg/ml of lactoferrin hydrolysate of (1) (in Preparation of Samples, supra). or 0 μg, 16 μg, 64 μg, and 256 μg/ml of lactoferrin-derived antimicrobial peptides of (2) (in Preparation of Samples, supra), and 0 μg, 0.01 μg, 0.1 μg, 1 μg, and 10 μg/ml of antibiotics of (3) (supra), then antimicrobial activity of the combined use of the components against Escherichia coli 0-111 and Staphylococcus aureus (JCM2151) as well as growth inhibiting concentrations of the antibiotics were investigated."}, "[1]": {"test_system": "Staphylococcus aureus JCM2151", "assay": "Test for antimicrobial activity (turbidity): growth inhibiting concentration of antibiotics", "type": "cell-based", "settings": "for MIC: Staphylococcus aureus", "procedure": "as §1, §2, §3, §4"}, "[2]": {"test_system": "Staphylocoecus aureus (JCM-2151)", "assay": "Viability assay in Mueller-Hington Broth", "type": "cell-based, Staphylococcus aureus", "procedure": "as §1\nas §2, with “tests. […]” for “tests.”"}, "[3]": {"settings": "Escherichia coli, 0111, antimicrobial peptide (Seq. ID No. 27) 0 μg/ml"}, "[4]": {"settings": "Escherichia coli, 0111, antimicrobial peptide (Seq. ID No. 27) 16 μg/ml"}, "[5]": {"settings": "Escherichia coli, 0111, antimicrobial peptide (Seq. ID No. 27) 64 μg/ml"}, "[6]": {"settings": "Escherichia coli, 0111, antimicrobial peptide (Seq. ID No. 27) 256 μg/ml"}, "[7]": {"settings": "lactoferrin hydrolysate 0 mg/ml"}, "[8]": {"settings": "lactoferrin hydrolysate 0.4 mg/ml"}, "[9]": {"settings": "lactoferrin hydrolysate 1.6 mg/ml"}, "[10]": {"settings": "lactoferrin hydrolysate 6.4 mg/ml"}, "[11]": {"settings": "JCM2151, antimicrobial peptide (Seq. ID No. 27) 0 μg/ml"}, "[12]": {"settings": "JCM2151, antimicrobial peptide (Seq. ID No. 27) 16 μg/ml"}, "[13]": {"settings": "JCM2151, antimicrobial peptide (Seq. ID No. 27) 64 μg/ml"}, "[14]": {"settings": "JCM2151, antimicrobial peptide (Seq. ID No. 27) 256 μg/ml"}},
  "data": [
    {"smiles": "CC1(C)S[C@@H]2[C@H](NC(=O)Cc3ccccc3)C(=O)N2[C@H]1C(=O)O", "note": "[penicillin]", "values": [
      {"measurement": "MIC", "setting": "Escherichia coli 0-111; [3]", "value": "> 1", "unit": "µg/mL"},
      {"measurement": "MIC", "setting": "Escherichia coli 0-111; [4]", "value": "> 1", "unit": "µg/mL"},
      {"measurement": "MIC", "setting": "Escherichia coli 0-111; [5]", "value": 1, "unit": "µg/mL"},
      {"measurement": "MIC", "setting": "Escherichia coli 0-111; [6]", "value": 0.1, "unit": "µg/mL"},
      {"measurement": "Growth inhibiting Concentration of antibiotics", "setting": "Escherichia coli 0-111; [7]", "value": "> 1", "unit": "µg/mL"},
      {"measurement": "Growth inhibiting Concentration of antibiotics", "setting": "Escherichia coli 0-111; [8]", "value": 1, "unit": "µg/mL"},
      {"measurement": "Growth inhibiting Concentration of antibiotics", "setting": "Escherichia coli 0-111; [9]", "value": 1, "unit": "µg/mL"},
      {"measurement": "Growth inhibiting Concentration of antibiotics", "setting": "Escherichia coli 0-111; [10]", "value": 0.1, "unit": "µg/mL"},
      {"measurement": "MIC", "setting": "[1]; [11]", "value": "> 1", "unit": "µg/mL"},
      {"measurement": "MIC", "setting": "[1]; [12]", "value": 1, "unit": "µg/mL"},
      {"measurement": "MIC", "setting": "[1]; [13]", "value": 1, "unit": "µg/mL"},
      {"measurement": "MIC", "setting": "[1]; [14]", "value": 0.1, "unit": "µg/mL"},
      {"measurement": "Growth inhibiting Concentration of antibiotics", "setting": "[1]; [7]", "value": "> 1", "unit": "µg/mL"},
      {"measurement": "Growth inhibiting Concentration of antibiotics", "setting": "[1]; [8]", "value": 1, "unit": "µg/mL"},
      {"measurement": "Growth inhibiting Concentration of antibiotics", "setting": "[1]; [9]", "value": 1, "unit": "µg/mL"},
      {"measurement": "Growth inhibiting Concentration of antibiotics", "setting": "[1]; [10]", "value": 0.1, "unit": "µg/mL"},
      {"measurement": "survival rate", "setting": "[2]; Test 25: penicillin 1 μg/ml alone (control row)", "value": 14.2, "unit": "%"}
    ]},
    {"smiles": "[H]/N=C(/N)N[C@H]1[C@H](O)[C@@H](O)[C@H](O[C@@H]2O[C@@H](C)[C@](O)(C=O)[C@H]2O[C@@H]2O[C@@H](CO)[C@H](O)[C@@H](O)[C@@H]2NC)[C@@H](N/C(N)=N\\[H])[C@@H]1O", "note": "[streptomycin]", "values": [
      {"measurement": "MIC", "setting": "Escherichia coli 0-111; [3]", "value": "> 1", "unit": "µg/mL"},
      {"measurement": "MIC", "setting": "Escherichia coli 0-111; [4]", "value": "> 1", "unit": "µg/mL"},
      {"measurement": "MIC", "setting": "Escherichia coli 0-111; [5]", "value": 1, "unit": "µg/mL"},
      {"measurement": "MIC", "setting": "Escherichia coli 0-111; [6]", "value": 0.01, "unit": "µg/mL"},
      {"measurement": "Growth inhibiting Concentration of antibiotics", "setting": "Escherichia coli 0-111; [7]", "value": "> 1", "unit": "µg/mL"},
      {"measurement": "Growth inhibiting Concentration of antibiotics", "setting": "Escherichia coli 0-111; [8]", "value": "> 1", "unit": "µg/mL"},
      {"measurement": "Growth inhibiting Concentration of antibiotics", "setting": "Escherichia coli 0-111; [9]", "value": 1, "unit": "µg/mL"},
      {"measurement": "Growth inhibiting Concentration of antibiotics", "setting": "Escherichia coli 0-111; [10]", "value": 0.01, "unit": "µg/mL"},
      {"measurement": "MIC", "setting": "[1]; [11]", "value": "> 1", "unit": "µg/mL"},
      {"measurement": "MIC", "setting": "[1]; [12]", "value": "> 1", "unit": "µg/mL"},
      {"measurement": "MIC", "setting": "[1]; [13]", "value": 1, "unit": "µg/mL"},
      {"measurement": "MIC", "setting": "[1]; [14]", "value": 0.01, "unit": "µg/mL"},
      {"measurement": "Growth inhibiting Concentration of antibiotics", "setting": "[1]; [7]", "value": "> 1", "unit": "µg/mL"},
      {"measurement": "Growth inhibiting Concentration of antibiotics", "setting": "[1]; [8]", "value": "> 1", "unit": "µg/mL"},
      {"measurement": "Growth inhibiting Concentration of antibiotics", "setting": "[1]; [9]", "value": 1, "unit": "µg/mL"},
      {"measurement": "Growth inhibiting Concentration of antibiotics", "setting": "[1]; [10]", "value": 0.1, "unit": "µg/mL"},
      {"measurement": "survival rate", "setting": "[2]; Test 25: streptomycin 1 μg/ml alone (control row)", "value": 12.4, "unit": "%"}
    ]}
  ]
}
